Laboratory results as given in patent US20230142366A1, “NOVEL POLYMORPHIC FORMS OF METOPIMAZINE” (Neurogastrx, Inc., priority 2020, published 2023).
Counter-ions that a name gives are not always drawn. Marks after values point to notes of the source that are not given here.

What was measured:
[1] = before and after a high fat breakfast; cited from earlier work
[2] = Clinical comparative pharmacokinetic study, 3-period cross-over, single oral doses, plasma samples; format: in vivo, human
Method: A clinical comparative pharmacokinetic study was performed to understand the pharmacokinetic profile of metopimazine mesylate Crystal Form A in comparison to the free base of metopimazine. This study was as a 3-period, cross-over design with 3 administrations of single doses: oral formulation of metopimazine mesylate Crystal Form A fasting, oral formulation of metopimazine mesylate Crystal Form A after a high-fat breakfast, and oral formulation of metopimazine free base fasting, with a wash-out period of 48 hours between each administration. Fifteen subjects were enrolled and received each of the 3 treatment. Plasma samples from each subject were analyzed for various pharmacokinetic parameters. Mixed model repeated measures (MMRM) analysis was performed on each sample.
The second objective of this study was to compare the pharmacokinetics of metopimazine mesylate Crystal Form A administered as an oral administration of a single dose of 15 mg orally in 15 human subjects either in a fasted state or after a high fat breakfast. Plasma samples from each subject were analyzed for various pharmacokinetic parameters. […] Both Cmax and AUC are well within the 90% confidence interval.

[3] = 15 mg single oral dose, n = 15, fasted
[4] = 90% confidence interval of ratio fasted vs fed
[5] = 90% confidence interval of ratio fasted vs fed, marked bioequivalence
[6] = single dose of 15 mg orally, 15 human subjects

| SMILES | Reduction in AUC (food effect) [1] [%] | Reduction in Cmax (food effect) [1] [%] | Tmax CV % [2, 3] [%] | Tmax Max [2, 3] [h] | Tmax Median [2, 3] [h] | Tmax Min [2, 3] [h] | Tmax Mean ([2]; 15 mg single oral dose, n = 15, fasted, plasma) [h] | Variance of Tmax values compared with metopimazine free base ([2]; 15 mg oral, fasted, MMRM analysis) | Change in AUC when administered with food ([2]; 15 mg oral, fed vs fasted) | Reduction in Cmax when administered with food ([2]; 15 mg oral, fed vs fasted) | AUC0-inf GLSM Ratio fasted vs fed (%) ([2]; 15 mg, n = 15) | Cmax GLSM Ratio fasted vs fed (%) ([2]; 15 mg, n = 15) | Cmax ratio Lower CI % [2, 4] [%] | Cmax ratio Upper CI % [2, 4] [%] | AUC0-inf ratio Lower CI % [2, 5] | AUC0-inf ratio Upper CI % [2, 5] | Geometric mean difference in AUC, high fat breakfast vs fasted [2, 6] | Geometric mean difference in Cmax, high fat breakfast vs fasted [2, 6] |
| --- | --- | --- | --- | --- | --- | --- | --- | --- | --- | --- | --- | --- | --- | --- | --- | --- | --- | --- |
| CS(=O)(=O)c1ccc2c(c1)N(CCCN1CCC(C(N)=O)CC1)c1ccccc1S2 [Metopimazine free base, 1-(3-(2-(methylsulfonyl)-10H-phenothiazin-10-yl)propyl)piperidine-4-carboxamide, reference compound] | 23 | 58 | 77.33 | 4.00 | 1.00 | 0.50 | 1.27 | – | – | – | – | – | – | – | – | – | – | – |
| CS(=O)(=O)c1ccc2c(c1)N(CCCN1CCC(C(N)=O)CC1)c1ccccc1S2 [Metopimazine mesylate Crystal Form A, 1-(3-(2-(methylsulfonyl)-10H-phenothiazin-10-yl)propyl)piperidine-4-carboxamide methanesulfonic acid] | – | – | 34.25 | 1.50 | – | 0.50 | – | statistically significantly lower variance | no notable change in AUC | approximately 15% | 93.63 | 84.07 | 63.82 | 110.75 | 86.00* % | 101.93* % | not statistical difference | slightly but significantly lower |
